Drawing on US11377469B2, “CD73 inhibitors” (ORIC Pharmaceuticals, Inc., priority 2017, dated 2022), this text covers IC50 for 24 compounds.

For this experiment, the target named is CD73 (Homo sapiens (Human), UniProt P21589). In words: Biochemical Assay (CD73 inhibition, AMP hydrolysis, Malachite Green readout). The settings on record: CD73 0.3208 nM, AMP 15 μM, Tris-HCl pH 7.4, Malachite Green absorbance.
CD73, sequence (P21589 27-574): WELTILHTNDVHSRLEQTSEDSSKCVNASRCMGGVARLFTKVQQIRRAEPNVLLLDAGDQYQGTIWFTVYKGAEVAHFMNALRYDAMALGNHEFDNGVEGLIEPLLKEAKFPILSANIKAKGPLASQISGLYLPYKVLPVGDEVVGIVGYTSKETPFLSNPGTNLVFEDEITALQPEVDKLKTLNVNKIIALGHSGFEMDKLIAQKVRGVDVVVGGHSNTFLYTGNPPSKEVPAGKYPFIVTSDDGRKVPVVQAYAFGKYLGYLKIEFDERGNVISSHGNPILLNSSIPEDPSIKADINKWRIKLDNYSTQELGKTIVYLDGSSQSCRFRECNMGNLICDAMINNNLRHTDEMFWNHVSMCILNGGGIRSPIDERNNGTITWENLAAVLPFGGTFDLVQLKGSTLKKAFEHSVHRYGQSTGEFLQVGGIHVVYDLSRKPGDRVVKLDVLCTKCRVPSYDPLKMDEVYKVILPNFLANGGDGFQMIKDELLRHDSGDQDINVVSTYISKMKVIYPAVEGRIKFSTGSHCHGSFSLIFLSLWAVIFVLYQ
In turn, `O=P(O)(O)COC[C@H]1O[C@@H](n2ncc3c(NCc4cccc5ccccc45)nc(Cl)nc32)[C@H](O)[C@@H]1O` [Example 49, ((((2R,3S,4R,5R)-5-(6-chloro-4-((naphthalen-1-ylmethyl)amino)-1H-pyrazolo[3,4-d]pyrimidin-1-yl)-3,4-dihydroxytetrahydrofuran-2-yl)methoxy)methyl)phosphonic acid] showed an IC50 of at most 0.5 µM.
Under `O=P(O)(O)CS(=O)(=O)C[C@H]1O[C@@H](n2ncc3c(NCc4ccccc4Cl)nc(Cl)nc32)[C@H](O)[C@@H]1O` [Example 14, (((((2S,3S,4R,5R)-5-(6-Chloro-4-((2-chlorobenzyl)amino)-1H-pyrazolo[3,4-d]pyrimidin-1-yl)-3,4-dihydroxytetrahydrofuran-2-yl)methyl)sulfonyl)methyl)phosphonic acid] stands at most 0.5 µM; under `O=C(CP(=O)(O)O)N(Cc1ccccc1)C[C@H]1O[C@@H](n2ncc3c(NCc4ccccc4Cl)nc(Cl)nc32)[C@H](O)[C@@H]1O` [Example 28, (2-(benzyl(((2R,3S,4R,5R)-5-(6-chloro-4-((2-chlorobenzyl)amino)-1H-pyrazolo[3,4-d]pyrimidin-1-yl)-3,4-dihydroxytetrahydrofuran-2-yl)methyl)amino)-2-oxoethyl)phosphonic acid], over 1 µM.
Under `CN(c1nc(Cl)nc2c1nnn2[C@@H]1O[C@H](COC(=O)CP(=O)(O)O)[C@@H](O)[C@H]1O)[C@H]1CCc2ccccc21` [Example 11, (2-(((2R,3S,4R,5R)-5-(5-chloro-7-(((S)-2,3-dihydro-1H-inden-1-yl)(methyl)amino)-3H-[1,2,3]triazolo[4,5-d]pyrimidin-3-yl)-3,4-dihydroxytetrahydrofuran-2-yl)methoxy)-2-oxoethyl)phosphonic acid] stands over 1 µM.
`O=P(O)(O)CS(=O)(=O)CC[C@H]1O[C@@H](n2ncc3c(NCC4CC4)nc(Cl)nc32)[C@H](O)[C@@H]1O` [Example 88, (((2-((2R,3S,4R,5R)-5-(6-chloro-4-((cyclopropylmethy)amino)-1H-pyrazolo[3,4-d]pyrimidin-1-yl)-3,4-dihydroxytetrahydrofuran-2-yl)ethyl)sulfonyl)methyl)phosphonic acid] yielded a half-inhibitory concentration (IC50) of over 1 µM.
Next, `O=P(O)(O)COC[C@H]1O[C@@H](n2ncc3c(NCc4ncccn4)nc(Cl)nc32)[C@H](O)[C@@H]1O` [Example 90, ((((2R,3S,4R,5R)-5-(6-chloro-4-((pyrimidin-2-ylmethyl)amino)-1H-pyrazolo[3,4-d]pyrimidin-1-yl)-3,4-dihydroxytetrahydrofuran-2-yl)methoxy)methyl)phosphonic acid]: 0.5 to 1 µM; `Nc1nc(Cl)nc2c1cnn2[C@@H]1O[C@H](COCP(=O)(O)O)[C@@H](O)[C@H]1O` [Example 57, ((((2R,3S,4R,5R)-5-(4-amino-6-chloro-1H-pyrazolo[3,4-d]pyrimidin-1-yl)-3,4-dihydroxytetrahydrofuran-2-yl)methoxy)methyl)phosphonic acid]: 0.5 to 1 µM; `C[C@H]1CCC[C@H]1Nc1nc(Cl)nc2c1cnn2[C@@H]1O[C@H](COCP(=O)(O)O)[C@@H](O)[C@H]1O` [Example 105, ((((2R,3S,4R,5R)-5-(6-chloro-4-(((1R,2S)-2-methylcyclopentyl)amino)-1H-pyrazolo[3,4-d]pyrimidin-1-yl)-3,4-dihydroxytetrahydrofuran-2-yl)methoxy)methyl)phosphonic acid]: at most 0.5 µM.
Under `Cc1nc(NCc2cccc(Cl)c2)c2cnn([C@@H]3O[C@H](COCP(=O)(O)O)[C@@H](O)[C@H]3O)c2n1` [Example 44, ((((2R,3S,4R,5R)-5-(4-((3-chlorobenzyl)amino)-6-methyl-1H-pyrazolo[3,4-d]pyrimidin-1-yl)-3,4-dihydroxytetrahydrofuran-2-yl)methoxy)methyl)phosphonic acid] stands over 1 µM.
Next, `O=P(O)(O)COC[C@H]1O[C@@H](n2ncc3c(N[C@H]4CCc5ccccc54)nc(Cl)nc32)[C@H](O)[C@@H]1O` [Example 25, ((((2R,3S,4R,5R)-5-(6-chloro-4-(((S)-2,3-dihydro-1H-inden-1-yl)amino)-1H-pyrazolo[3,4-d]pyrimidin-1-yl)-3,4-dihydroxytetrahydrofuran-2-yl)methoxy)methyl)phosphonic acid]: at most 0.5 µM; `O=P(O)(O)COC[C@H]1O[C@@H](n2ncc3c(NCc4cccc(Cl)c4)nc(N4CCCC4)nc32)[C@H](O)[C@@H]1O` [Example 55, ((((2R,3S,4R,5R)-5-(4-((3-chlorobenzyl)amino)-6-(pyrrolidin-1-yl)-1H-pyrazolo[3,4-d]pyrimidin-1-yl)-3,4-dihydroxytetrahydrofuran-2-yl)methoxy)methyl)phosphonic acid]: over 1 µM.
Regarding `O=P(O)(O)CS(=O)(=O)C[C@H]1O[C@@H](n2ncc3c(NC4CCC4)nc(Cl)nc32)[C@H](O)[C@@H]1O` [Example 107, (((((2S,3S,4R,5R)-5-(6-chloro-4-(cyclobutylamino)-1H-pyrazolo[3,4-d]pyrimidin-1-yl)-3,4-dihydroxytetrahydrofuran-2-yl)methyl)sulfonyl)methyl)phosphonic acid], the IC50 was at most 0.5 µM.
Under `C[C@H](OCP(=O)(O)O)[C@H]1O[C@@H](n2ncc3c(NCc4ccccc4Cl)nc(Cl)nc32)[C@H](O)[C@@H]1O` [Example 50, (((S)-1-((2S,3S,4R,5R)-5-(6-chloro-4-((2-chlorobenzyl)amino)-1H-pyrazolo[3,4-d]pyrimidin-1-yl)-3,4-dihydroxytetrahydrofuran-2-yl)ethoxy)methyl)phosphonic acid] stands over 1 µM; under `O=P(O)(O)COC[C@H]1O[C@@H](n2ncc3c(NCC4CCC4)nc(Cl)nc32)[C@H](O)[C@@H]1O` [Example 68, ((((2R,3S,4R,5R)-5-(6-chloro-4-((cyclobutylmethyl)amino)-1H-pyrazolo[3,4-d]pyrimidin-1-yl)-3,4-dihydroxytetrahydrofuran-2-yl)methoxy)methyl)phosphonic acid], at most 0.5 µM; under `O=P(O)(O)COC[C@H]1O[C@@H](n2ncc3c(N4CCC4)nc(Cl)nc32)[C@H](O)[C@@H]1O` [Example 83, ((((2R,3S,4R,5R)-5-(4-(azetidin-1-yl)-6-chloro-1H-pyrazolo[3,4-d]pyrimidin-1-yl)-3,4-dihydroxytetrahydrofuran-2-yl)methoxy)methyl)phosphonic acid], at most 0.5 µM.
Next, `C[C@@]1(O)[C@@H](COCP(=O)(O)O)O[C@@H](n2ncc3c(NCc4ccccc4Cl)nc(Cl)nc32)[C@@H]1O` [Example 19, ((((2R,3S,4R,5R)-5-(6-Chloro-4-((2-chlorobenzyl)amino)-1H-pyrazolo[3,4-d]pyrimidin-1-yl)-3,4-dihydroxy-3-methyltetrahydrofuran-2-yl)methoxy)methyl)phosphonic acid]: 0.5 to 1 µM; `CC1CCCC1Nc1nc(Cl)nc2c1cnn2[C@@H]1O[C@H](CS(=O)(=O)CP(=O)(O)O)[C@@H](O)[C@H]1O` (stereo partly drawn) [Example 128, (((((2S,3S,4R,5R)-5-(6-chloro-4-((2-methylcyclopentyl)amino)-1H-pyrazolo[3,4-d]pyrimidin-1-yl)-3,4-dihydroxytetrahydrofuran-2-yl)methyl)sulfonyl)methyl)phosphonic acid]: at most 0.5 µM.
For the compound `O=P(O)(O)COC[C@H]1O[C@@H](n2ncc3c(NC4CCCCC4)nc(Cl)nc32)[C@H](O)[C@@H]1O` [Example 93, ((((2R,3S,4R,5R)-5-(6-chloro-4-(cyclohexylamino)-1H-pyrazolo[3,4-d]pyrimidin-1-yl)-3,4-dihydroxytetrahydrofuran-2-yl)methoxy)methyl)phosphonic acid], the IC50 was at most 0.5 µM.
Under `CN(c1nc(Cl)nc2c1cnn2[C@@H]1O[C@H](COC(=O)CP(=O)(O)O)[C@@H](O)[C@H]1O)[C@H]1CCc2ccccc21` [Example 8, (2-(((2R,3S,4R,5R)-5-(6-Chloro-4-(((S)-2,3-dihydro-1H-inden-1-yl)(methyl)amino)-1H-pyrazolo[3,4-d]pyrimidin-1-yl)-3,4-dihydroxytetrahydrofuran-2-yl)methoxy)-2-oxoethyl)phosphonic acid] stands 0.5 to 1 µM; under `O=P(O)(O)COC[C@H]1O[C@@H](n2ncc3c(NCC4CC4)nc(Cl)nc32)[C@H](O)[C@@H]1O` [Example 38, ((((2R,3S,4R,5R)-5-(6-chloro-4-((cyclopropylmethyl)amino)-1H-pyrazolo[3,4-d]pyrimidin-1-yl)-3,4-dihydroxytetrahydrofuran-2-yl)methoxy)methyl)phosphonic acid], at most 0.5 µM.
Under `C[C@@H](OCP(=O)(O)O)[C@H]1O[C@@H](n2ncc3c(NCc4ccccc4Cl)nc(Cl)nc32)[C@H](O)[C@@H]1O` [Example 60, (((R)-1-((2S,3S,4R,5R)-5-(6-chloro-4-((2-chlorobenzyl)amino)-1H-pyrazolo[3,4-d]pyrimidin-1-yl)-3,4-dihydroxytetrahydrofuran-2-yl)ethoxy)methyl)phosphonic acid] stands over 1 µM; under `O=P(O)(O)COC[C@H]1O[C@@H](n2ncc3c(NCC4CCCC4)nc(Cl)nc32)[C@H](O)[C@@H]1O` [Example 124, ((((2R,3S,4R,5R)-5-(6-chloro-4-((cyclopentylmethyl)amino)-1H-pyrazolo[3,4-d]pyrimidin-1-yl)-3,4-dihydroxytetrahydrofuran-2-yl)methoxy)methyl)phosphonic acid], at most 0.5 µM.
Next, `O=P(O)(O)COC[C@H]1O[C@@H](n2ncc3c(NC[C@@H]4CCCO4)nc(Cl)nc32)[C@H](O)[C@@H]1O` [Example 69, ((((2R,3S,4R,5R)-5-(6-chloro-4-((((S)-tetrahydrofuran-2-yl)methyl)amino)-1H-pyrazolo[3,4-d]pyrimidin-1-yl)-3,4-dihydroxytetrahydrofuran-2-yl)methoxy)methyl)phosphonic acid]: at most 0.5 µM.
Take `O=P(O)(O)CCC[C@H]1O[C@@H](n2ncc3c(NC4CCCC4)nc(Cl)nc32)[C@H](O)[C@@H]1O` [Example 101, (3-((2R,3S,4R,5R)-5-(6-Chloro-4-(cyclopentylamino)-1H-pyrazolo[3,4-d]pyrimidin-1-yl)-3,4-dihydroxytetrahydrofuran-2-yl)propyl)phosphonic acid]: the half-maximal inhibitory concentration (IC50) is 0.5 to 1 µM.
